The record followed here is patent publication US8138196B2, “Antifungal wallboards and building materials and methods for the production thereof” (Syngenta Crop Protection, Inc., priority 2005, dated 2012).

The structures appear in SMILES notation.

What all share (assay): Example 4 liquid culture assay on 24 and 48 well plates, 3 way mixtures
Format in all cases: cell-based

The test system of assay [1] is Aspergillus niger (DSM 63263). The following applies: A. niger, AZO 0.05 mg ai/l. The text has this: (§1) For test 006-2005: Alternaria tenuissima (DSM 63360), Penicillium chrysogenum (DSM 895), Cladosporium cladosporoides (DSM62121), Aspergillus niger (DSM 63263), Aspergillus versicolor (DSM 1943) and Aureobasidium pullulans (ATCC 15233) were separately cultivated on PDA media to […] sporulation. Spore suspensions were produced for each fungus. Spore concentrations of approx. 100,000 spores/ml were used.
For test 015-2006: Alternaria tenuissima (DSM 63360), Penicillium pinophilum (CBS342.61), Gliocladium virens (DSM1963), Aspergillus niger (DSM 63263), Stachybotrys chartarum (DSM 2144) and Aureobasidium pullulans (ATCC 15233) were separately cultivated on PDA media to […] sporulation. Spore suspensions were produced for each fungus. Spore concentrations of approx. 100,000 spores/ml were used.
(§2) Test method used: liquid culture assay on 24 and 48 well plates respectively.
(§3) For testing of the 3 way mixtures each of the formulated fungicide (100 ul) was filled into the 24 and 48 well plates respectively. Afterwards 700 ul of 0.3% AE media was added to the plate. The spore suspension of the specific fungi was added to this media in advance containing approx. 100,000 spores/ml. For testing the solo compounds the equivalent of distilled water was added instead of the formulated fungicide volume of the mixing partners. The plates were then sealed and incubated at 24° C.
(§4) Dependent on the growth properties of each organisms, the evaluation was done after 3 to 6 days, when the surface of the check well was covered with mycelium. The evaluation was performed by assessing the growth of the fungi related to the check growth. The results are expressed as % activity relative to the check (values of 0-100% growth). Afterwards the results were converted in % growth inhibition.
(§5) For the mixtures of different fungicides the synergism was calculated based on the Colby equation, which is described above.

The test system of assay [2] is Aspergillus versicolor (DSM 1943). The settings on record: test 006-2005, A. versicolor.
Text: as §1, §2, §3, §4, §5

Assay [3] deals with Stachybotrys chartarum (DSM 2144). The following applies: test 015-2005, S. chartarum. On the procedure:
[…] Spore suspensions were produced for each fungus. Spore concentrations of approx. 100,000 spores/ml were used.
as §2, §3, §4, §5

In the case of `CO/C=C(/C(=O)OC)c1ccccc1Oc1cc(Oc2ccccc2C#N)ncn1` [Azoxystrobin], the “inh % (AZO alone)” value is 10% in assay [1] (test 006-2005); 0% in assay [1] (test 015-2005); 10% in assay [2] (AZO 0.05 mg ai/l); 30% in assay [2] (AZO 0.2 mg ai/l); 30% in assay [2] (AZO 0.8 mg ai/l); 30% in assay [2] (AZO 1.6 mg ai/l). Also, the “inh % (AZO alone)” value in assay [2] (AZO 3.12 mg ai/l) is 30%; in assay [2] (AZO 12.5 mg ai/l), 30%; in assay [2] (AZO 50 mg ai/l) it was 30%; in assay [2] (AZO 100 mg ai/l), 30%; in assay [3] (AZO 0.8 mg ai/l), 10%; in assay [3] (AZO 1.6 mg ai/l), 10%. Further, the “inh % (AZO alone)” value in assay [3] (AZO 3.1 mg ai/l) is given as 30%.
